# Measured values published in PMC9316063, “Chalcones as Anti-Glioblastoma Stem Cell Agent Alone or as Nanoparticle Formulation Using Carbon Dots as Nanocarrier” (Pharmaceutics, 2022).
# Where “and” joins values, the source holds several entries; their conditions need not be identical. Equal entries are not always repeated. Where two headings read alike, the source gives them in different places.
# What was measured:
# Assay type in all cases: cell-based, human
# Glio3 = assay: MTS cell viability assay, GSC line Glio3; conditions: 72 h, read-out: Glio3 IC50
# Text: (§1) The generation and characterization of our GSC lines (Glio3, Glio9, Glio38) have been previously described. In brief, following patient consent, the resected tumors were mechanically and enzymatically dissociated, and red blood cells were removed using Red Cell Lysis buffer (SigmaAldrich, St. Louis, MO, USA). Cells were filtered and plated in a 3:1 ratio of Dulbecco’s Modified Eagle’s medium (DMEM): F12 (Gibco, Carlsbad, CA, USA) media supplemented with 1% penicillin and streptomcycin (penn/strep), 20 ng/mL each of human epidermal growth factor and human fibroblast growth factor, and 2% Gem21 NeuroPlex Serum-Free Supplement (Gemini Bioscience, Sacramento, CA, USA); a formulation consistent for the generation of GBM stem cell lines. Both Glio3 and Glio38 were derived from tumors prior to drug or radiation therapy and grow as neurospheres, whereas Glio9 was derived from a recurrent tumor, following chemo and radiotherapy, and grows adherent. The GBM cell line U87 MG (U87), purchased from ATCC (Manassas, VA, USA) and the pediatric GBM cell line SJ-GBM2 was obtained from Children’s Oncology Group. SJ-GBM2 cell line was derived from a child with glioblastoma post therapy and is used as part of a National Cancer Institute pediatric pre-clinical testing program. Both lines were maintained in RPMI media supplemented with 10% FBS and 1% penn/strep. Mesenchymal stem cells (MSCs) originally derived from human bone marrow aspirates were obtained from Thermo Fisher Scientific and maintained in MEM alpha supplemented with 20% FBS and 1% penn/strep. Prior to drug treatment, MSCs were moved to media with 10% FBS. Upon receipt U87, SJ-GBM2 and MSCs were immediately expanded with several aliquots frozen down for future use. These cell lines are not listed on the most recent NCBI database for misidentification and contamination of human cell lines. All cell lines were routinely tested for mycoplasma using LookOut mycoplasma PCR detection kit (Sigma-Aldrich, St. Louis, MO, USA) according to the manufacturer’s instructions and were maintained at 37 °C in a humidified 5% CO2 incubator.
# (§2) The chalcones were dissolved in dimethyl sulfoxide (DMSO) at a concentration of 10 mM, vortexed and subsequently diluted to obtain 1 mM and 0.1 mM stock concentrations. C-dot-trans-chalcones were resuspended in supplement-free media (3:1 ratio DMEM/F12 for GSC experiments or RPMI for non-stem cell line experiments). Cell viability in response to drug treatment was determined using CellTiter 96 AQueous One Solution Cell Proliferation Assay, a colorimetric MTS assay kit (Promega, Madison, WI, USA). The GSCs were seeded into 96-well plates using modified neurosphere media containing 5% FBS at a density of 10,000 cells per well. MSCs and U87 cells were plated at 5000 cells/well while SJ-GBM2 cells were plated at 10,000 cells/well. The next day cells were treated with increasing concentrations of chalcones or C-dot-chalcone conjugate. Next, 72 h later, media was aspirated and 100 μL of a 1:5 solution of MTS to cell culture media was added to each well and incubated for 1–4 h. Optical density was measured at 490 nm using BioTek Synergy HT plate reader. Viability of drug treated cells is expressed as the percent viable cells relative to non-treated cells (100% viability). Experiments were done in triplicate.
# Glio9 = assay: MTS cell viability assay, GSC line Glio9; conditions: 72 h, read-out: Glio9 IC50
# Text: as §1, §2
# Glio38 = assay: MTS cell viability assay, GSC line Glio38; conditions: 72 h, read-out: Glio38 IC50
# Text: as §1, §2
# [1] = tested on: GSC lines Glio3, Glio9 and Glio38; assay: MTS cell viability assay, all three GSC lines together; conditions: for activity against GSCs: at the concentrations tested; for IC50: 72 h
# Text: as §1, §2
# [2] = tested on: mesenchymal stem cells (MSC); assay: MTS cell viability assay, mesenchymal stem cells; conditions: 72 h, estimated, >>10 indicates no cell death observed at any of the concentrations tested
# Text: as §1, §2
# [3] = average of Glio3, Glio9, Glio38, read-out: average IC50 across the 3 GSC lines
# [4] = Homo sapiens, Mesenchymal stem cells
# [5] = Homo sapiens, average of Glio3, Glio9, Glio38, read-out: average IC50 across the 3 GSC lines
# [6] = Homo sapiens, in all three GSC lines, read-out: IC50 in all GSC lines (bound stated in text)
Molecule,"IC50 (Glio3; Homo sapiens, MTS, ±SEM)","IC50 (Glio9; Homo sapiens, MTS, ±SEM)","IC50 (Glio38; Homo sapiens, MTS, ±SEM)",activity against GSCs [1],"IC50 [2, 4]","IC50 [1, 6]",other results
COc1cc(/C=C/C(=O)c2ccc(N)cc2)cc(OC)c1O [Chalcone 3k],> 10 µM,> 10 µM,> 10 µM,not active at concentrations tested,–,–,activity against GSCs ([1]; listed as 4k): eliminates activity
"3,4,5-trimethoxy chalcone [Chalcone 3e]",–,–,–,–,–,–,"IC50 (Glio3; MTS, ±SEM): 10.9 ± 0.8 µM; IC50 (Glio9; MTS, ±SEM): 8.9 ± 1.6 µM; IC50 (Glio38; MTS, ±SEM): 9.2 ± 0.8 µM; IC50 [2]: 46.7 µM; IC50 ([2]; listed as 4′-amino-trimethoxy chalcone): ~50 µM; IC50 [1, 3]: < 10 µM and 9.7 µM; IC50 ([1]; in all three GSC lines, read-out: IC50 in all GSC lines (bound stated in text)): < 15 µM"
Nc1ccc(C(=O)/C=C/c2c[nH]c3ccccc23)cc1 [Chalcone 3t],> 10 µM,> 10 µM,> 10 µM,–,–,–,–
Nc1ccc(C(=O)/C=C/c2ccc(O)cc2)cc1 [Chalcone 3i],–,–,–,not active at concentrations tested,–,–,IC50 (Glio3; Homo sapiens): > 10 µM; IC50 (Glio9; Homo sapiens): > 10 µM; IC50 (Glio38; Homo sapiens): > 10 µM
Nc1ccc(C(=O)/C=C/c2cccc(F)c2)cc1 [Chalcone 3u],9.9 ± 0.3 µM,7.2 ± 0.6 µM,8.8 ± 1.4 µM,–,15.6 µM,< 10 µM,"IC50 [1, 5]: 8.6 µM"
Nc1ccc(C(=O)/C=C/c2cccc(Cl)c2)cc1 [Chalcone 3v],9.1 ± 0.6 µM,5.8 ± 0.9 µM,6.7 ± 0.6 µM,–,25.7 µM,< 10 µM,"IC50 [1, 5]: 7.2 µM"
COc1cc(/C=C/C(=O)c2ccc(O)cc2)cc(OC)c1 [Chalcone 4b],6.7 ± 0.2 µM,7 ± 0.4 µM,6.4 ± 0.4 µM,–,17.1 µM,< 10 µM,–
Nc1ccc(C(=O)/C=C/c2ccoc2)cc1 [Chalcone 3s],> 10 µM,> 10 µM,> 10 µM,–,–,–,–
COc1cc(/C=C/C(=O)c2ccc(OCC(=O)O)cc2)cc(OC)c1OC [Chalcone 4f],> 10 µM,> 10 µM,> 10 µM,active,–,–,–
Nc1ccc(C(=O)C=Cc2ccc(N3CCOCC3)cc2)cc1 [Chalcone 3m],> 10 µM,> 10 µM,> 10 µM,neither the morpholino or the methoxymethoxy derivatives were active against GSCs,–,–,–
Nc1ccc(C(=O)/C=C/c2ccccn2)cc1 [Chalcone 3q],–,–,–,–,–,–,"IC50 (Glio3; MTS, ±SEM): 8.3 ± 0.7 µM; IC50 (Glio9; MTS, ±SEM): 6.6 ± 0.5 µM; IC50 (Glio38; MTS, ±SEM): 6.6 ± 0.7 µM; IC50 [2]: > 10 µM; IC50 [1, 3]: 7.2 ± 0.5 µM"
CN(C)c1ccc(/C=C/C(=O)c2ccc(N)cc2)cc1 [Chalcone 3n],> 10 µM,> 10 µM,> 10 µM,inactive at the concentrations tested,–,–,–
Nc1ccc(C(=O)/C=C/c2ccccn2)cc1 [Chalcone 3p],6.6 ± 1.2 µM,5.2 ± 0.5 µM,6.4 ± 2 µM,–,8 µM,< 10 µM,"IC50 [1, 5]: 6.1 ± 0.4 µM"
COCOc1ccc(C=CC(=O)c2ccc(N)cc2)cc1OC [Chalcone 3h],> 10 µM,> 10 µM,> 10 µM,not active at concentrations tested,–,–,–
Nc1ccc(C(=O)/C=C/c2ccco2)cc1 [Chalcone 3r],> 10 µM,> 10 µM,> 10 µM,–,–,–,–
Nc1ccc(C(=O)/C=C/c2ccc(Cl)cc2)cc1 [Chalcone 3w],12.3 ± 1.1 µM,7 ± 0.3 µM,7.9 ± 0.6 µM,–,80.1 µM,< 15 µM,"IC50 [1, 5]: 9.1 µM"
COc1ccc(OC)c(/C=C/C(=O)c2ccc(N)cc2)c1 [Chalcone 3c],12 ± 1.8 µM,9.3 ± 0.6 µM,10.4 ± 2 µM,–,> 10 µM,< 15 µM,–
COc1cccc(/C=C/C(=O)c2ccc(O)cc2)c1OC [Chalcone 4a],11.4 ± 0.9 µM,14.2 ± 3 µM,9.1 ± 0.7 µM,–,> 10 µM,–,–
COc1ccc(/C=C/C(=O)c2ccc(N)cc2)cc1OC [Chalcone 3b],> 10 µM,> 10 µM,> 10 µM,–,–,–,–
COc1ccc(OC)c(/C=C/C(=O)c2ccc(NC(C)=O)cc2)c1 [Chalcone 3d],6.9 ± 1.6 µM,5.5 ± 1.1 µM,7.9 ± 1.7 µM,active,16.8 µM,< 10 µM,–
COc1cc(/C=C/C(=O)c2ccc(NC(C)=O)cc2)cc(OC)c1 [Chalcone 3g],6.2 ± 1.3 µM,4.8 ± 0.6 µM,5.4 ± 0.6 µM,active,7.4 µM,< 10 µM,–
COc1cc(/C=C/C(=O)c2ccc(OC(C)=O)cc2)cc(OC)c1OC [Chalcone 4d],7.7 ± 0.4 µM,6.2 ± 0.9 µM,6.9 ± 0.3 µM,–,> 10 µM,< 10 µM,–
CCOc1cc(C=CC(=O)c2ccc(N)cc2)ccc1O [Chalcone 3j],> 10 µM,> 10 µM,> 10 µM,not active at concentrations tested,–,–,–
"COc1cc(/C=C/C(=O)c2cccc(N)c2)cc(OC)c1OC [Chalcone 5a, 3′-Amino-3,4,5-trimethoxychalcone]",8 ± 1.5 µM,5.1 ± 0.6 µM,5 ± 0.8 µM,–,5.5 µM,–,–
COC(=O)COc1ccc(C(=O)/C=C/c2cc(OC)c(OC)c(OC)c2)cc1 [Chalcone 4e],10.4 ± 1.4 µM,7 ± 1.3 µM,18.4 µM,active,–,–,–
COc1cc(/C=C/C(=O)c2ccc(N)cc2)ccc1O [Chalcone 3l],> 10 µM,> 10 µM,> 10 µM,–,–,–,–
